# Measured values taken from ChEMBL document CHEMBL1201862, “PubChem BioAssay data set” (2004).
#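 Compound exposure: 48 hours, 5 concentrations, 96-well plates. The concentration for 50% growth inhibition is given as GI50.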 Calls of active or inactive are those of the source. Cut-off read from the data, not from the text of the source: active = GI50 up to about 1.1 µM and inactive = higher.
# How the values were obtained:
# Experiment in all cases: growth of human tumour cells (NCI), 48 h
# MDA-MB-231 = tested on: MDA-MB-231
# NCI-H226 = tested on: NCI-H226
# MDA-MB-435 = tested on: MDA-MB-435
# NCI-H522 = tested on: NCI-H522
# UO-31 = tested on: UO-31
# MCF7 = tested on: MCF7
# MDA-N = tested on: MDA-N
# HT-29 = tested on: HT-29
# DU-145 = tested on: DU-145
# UACC-62 = tested on: UACC-62
# U-251 = tested on: U-251
# COLO 205 = tested on: COLO 205
# SNB-19 = tested on: SNB-19
# NCI-H460 = tested on: NCI-H460
# OVCAR-4 = tested on: OVCAR-4
# CAKI-1 = tested on: CAKI-1
# LOX IMVI = tested on: LOX IMVI
# IGROV-1 = tested on: IGROV-1
# OVCAR-3 = tested on: OVCAR-3
# RXF 393 = tested on: RXF 393
SMILES,GI50 (MDA-MB-231),GI50 (NCI-H226),GI50 (MDA-MB-435),GI50 (NCI-H522),GI50 (UO-31),GI50 (MCF7),GI50 (MDA-N),GI50 (HT-29),GI50 (DU-145),GI50 (UACC-62),GI50 (U-251),GI50 (COLO 205),GI50 (SNB-19),GI50 (NCI-H460),GI50 (OVCAR-4),GI50 (CAKI-1),GI50 (LOX IMVI),GI50 (IGROV-1),GI50 (OVCAR-3),GI50 (RXF 393)
CON(C)C(=O)C1CCCO1 (centres undefined),> 100 µM (inactive),> 100 µM (inactive),> 100 µM (inactive),> 100 µM (inactive),> 100 µM (inactive),> 100 µM (inactive),> 100 µM (inactive),> 100 µM (inactive),> 100 µM (inactive),> 100 µM (inactive),> 100 µM (inactive),> 100 µM (inactive),> 100 µM (inactive),> 100 µM (inactive),> 100 µM (inactive),> 100 µM (inactive),> 100 µM (inactive),> 100 µM (inactive),> 100 µM (inactive),
CC(=O)CC(=O)c1cc2c(=O)oc(C)cc2oc1=O,,> 37.5 µM (inactive),,> 37.5 µM (inactive),> 37.5 µM (inactive),> 37.5 µM (inactive),> 37.5 µM (inactive),> 37.5 µM (inactive),> 37.5 µM (inactive),> 37.5 µM (inactive),> 37.5 µM (inactive),> 37.5 µM (inactive),> 37.5 µM (inactive),> 37.5 µM (inactive),> 37.5 µM (inactive),> 37.5 µM (inactive),,> 37.5 µM (inactive),> 37.5 µM (inactive),> 37.5 µM (inactive)
CC12c3c4cc(Br)cc3Oc3cc(Br)cc(c31)Oc1cc(Br)cc(c12)O4,17.8 µM (inactive),11.2 µM (inactive),26.2 µM (inactive),,52 µM (inactive),43.4 µM (inactive),41.1 µM (inactive),76.9 µM (inactive),16.4 µM (inactive),27.7 µM (inactive),62.1 µM (inactive),25.6 µM (inactive),> 100 µM (inactive),63.1 µM (inactive),> 100 µM (inactive),,24.9 µM (inactive),22.8 µM (inactive),12.4 µM (inactive),
CC1(C)CC(=O)C(=CNC(=S)c2ccccc2)C(=O)C1,> 100 µM (inactive),> 100 µM (inactive),> 100 µM (inactive),> 100 µM (inactive),> 100 µM (inactive),> 100 µM (inactive),> 100 µM (inactive),> 100 µM (inactive),> 100 µM (inactive),> 100 µM (inactive),> 100 µM (inactive),> 100 µM (inactive),> 100 µM (inactive),> 100 µM (inactive),> 100 µM (inactive),> 100 µM (inactive),> 100 µM (inactive),> 100 µM (inactive),> 100 µM (inactive),
CC1=C2C(=O)O[C@@H](c3ccoc3)[C@]2(C)CCC1=O [FRAXINELLONONE],> 100 µM (inactive),> 100 µM (inactive),> 100 µM (inactive),,> 100 µM (inactive),> 100 µM (inactive),> 100 µM (inactive),,> 100 µM (inactive),> 100 µM (inactive),> 100 µM (inactive),> 100 µM (inactive),> 100 µM (inactive),> 100 µM (inactive),,> 100 µM (inactive),> 100 µM (inactive),> 100 µM (inactive),> 100 µM (inactive),
COC(=NC(C)C)NC(C)C,> 100 µM (inactive),> 100 µM (inactive),> 100 µM (inactive),,> 100 µM (inactive),> 100 µM (inactive),> 100 µM (inactive),,> 100 µM (inactive),> 100 µM (inactive),> 100 µM (inactive),> 100 µM (inactive),> 100 µM (inactive),> 100 µM (inactive),,,> 100 µM (inactive),> 100 µM (inactive),,
CC(C)(CC(=O)Nc1ccccc1)C(=O)O,> 100 µM (inactive),> 100 µM (inactive),> 100 µM (inactive),,> 100 µM (inactive),> 100 µM (inactive),> 100 µM (inactive),> 100 µM (inactive),> 100 µM (inactive),> 100 µM (inactive),> 100 µM (inactive),> 100 µM (inactive),> 100 µM (inactive),> 100 µM (inactive),> 100 µM (inactive),> 100 µM (inactive),> 100 µM (inactive),> 100 µM (inactive),> 100 µM (inactive),
CNC(=O)OCC1=C(COC(=O)NC)CN(c2ccccc2)C1,> 100 µM (inactive),> 100 µM (inactive),> 100 µM (inactive),,> 100 µM (inactive),> 100 µM (inactive),> 100 µM (inactive),> 100 µM (inactive),> 100 µM (inactive),> 100 µM (inactive),> 100 µM (inactive),> 100 µM (inactive),> 100 µM (inactive),> 100 µM (inactive),> 100 µM (inactive),,> 100 µM (inactive),> 100 µM (inactive),> 100 µM (inactive),> 100 µM (inactive)
OCC(O)COCn1cc(Cn2ncc3c(NCc4ccccc4)ncnc32)nn1 (centres undefined),> 100 µM (inactive),> 100 µM (inactive),> 100 µM (inactive),18.7 µM (inactive),> 100 µM (inactive),> 100 µM (inactive),> 100 µM (inactive),> 100 µM (inactive),> 100 µM (inactive),> 100 µM (inactive),> 100 µM (inactive),> 100 µM (inactive),> 100 µM (inactive),,> 100 µM (inactive),> 100 µM (inactive),> 100 µM (inactive),> 100 µM (inactive),> 100 µM (inactive),
CC1=NN(C(=O)c2ccccc2O)C(=O)/C1=C/c1cccc(O)c1,38.8 µM (inactive),8.51 µM (inactive),,1.22 µM (inactive),0.178 µM (active),1.6 µM (inactive),0.603 µM (active),39.2 µM (inactive),0.536 µM (active),0.274 µM (active),0.277 µM (active),32.8 µM (inactive),0.543 µM (active),0.774 µM (active),2.27 µM (inactive),> 100 µM (inactive),0.597 µM (active),0.198 µM (active),0.824 µM (active),0.161 µM (active)
COc1ccc(/C=C2\CCCc3ccccc3C2=O)cc1,0.201 µM (active),0.116 µM (active),0.0154 µM (active),< 0.0218 µM (active),1.64 µM (inactive),1.27 µM (inactive),0.0132 µM (active),0.0849 µM (active),0.185 µM (active),0.0292 µM (active),0.508 µM (active),0.0904 µM (active),0.36 µM (active),0.0893 µM (active),14.5 µM (inactive),2.82 µM (inactive),0.179 µM (active),0.0573 µM (active),0.0982 µM (active),
C/C=C1/CN2CCC34c5ccccc5N(C)C23C2CC1C4(C(=O)OC)C(OC(C)=O)O2 (centres undefined),> 100 µM (inactive),> 100 µM (inactive),> 100 µM (inactive),> 100 µM (inactive),> 100 µM (inactive),> 100 µM (inactive),> 100 µM (inactive),> 100 µM (inactive),> 100 µM (inactive),> 100 µM (inactive),> 100 µM (inactive),> 100 µM (inactive),> 100 µM (inactive),> 100 µM (inactive),> 100 µM (inactive),> 100 µM (inactive),> 100 µM (inactive),> 100 µM (inactive),> 100 µM (inactive),
COc1ccc(Cc2c(N)[nH]c(=O)[nH]c2=O)cc1,> 100 µM (inactive),> 100 µM (inactive),> 100 µM (inactive),> 100 µM (inactive),90.2 µM (inactive),,> 100 µM (inactive),> 100 µM (inactive),,> 100 µM (inactive),> 100 µM (inactive),> 100 µM (inactive),> 100 µM (inactive),> 100 µM (inactive),> 100 µM (inactive),> 100 µM (inactive),> 100 µM (inactive),> 100 µM (inactive),> 100 µM (inactive),> 100 µM (inactive)
CCCC#CCOC(=O)c1cc([N+](=O)[O-])cc([N+](=O)[O-])c1,> 100 µM (inactive),,41.4 µM (inactive),43.4 µM (inactive),> 100 µM (inactive),> 100 µM (inactive),47.3 µM (inactive),> 100 µM (inactive),> 100 µM (inactive),> 100 µM (inactive),> 100 µM (inactive),> 100 µM (inactive),> 100 µM (inactive),> 100 µM (inactive),,> 100 µM (inactive),> 100 µM (inactive),> 100 µM (inactive),> 100 µM (inactive),
O=C(c1cccs1)N(C(=O)N1CCN(c2ccccc2)CC1)S(=O)(=O)c1ccccc1,23.1 µM (inactive),19.8 µM (inactive),25.2 µM (inactive),15.6 µM (inactive),18.5 µM (inactive),27.4 µM (inactive),19.3 µM (inactive),30.5 µM (inactive),16.5 µM (inactive),17.6 µM (inactive),17.5 µM (inactive),16.4 µM (inactive),27 µM (inactive),28.2 µM (inactive),34.7 µM (inactive),21.2 µM (inactive),,,32.2 µM (inactive),
O=C(c1ccco1)n1c2ccc(Br)cc2c2nc3ccccc3nc21,,68.4 µM (inactive),> 100 µM (inactive),12.1 µM (inactive),27 µM (inactive),5.09 µM (inactive),> 100 µM (inactive),81.5 µM (inactive),40.6 µM (inactive),31.6 µM (inactive),40.8 µM (inactive),> 100 µM (inactive),23.2 µM (inactive),28.6 µM (inactive),48.1 µM (inactive),84.9 µM (inactive),46.3 µM (inactive),19.4 µM (inactive),47.5 µM (inactive),52 µM (inactive)
